# Results as given in patent US5798092A, “Derivatized DTPA complexes pharmaceutical agents containing these compounds, their use, and processes for their production” (Schering Aktiengesellschaft, priority 1989, dated 1998).
# Key:
# rats [1] = test: in vivo NMR imaging in rat with Brown Pearce tumor (spin echo, 2 tesla); design: species or system rat (male hairless, Lew/Mol); details: 0.06 mmol/kg i.v.
# Excerpt: Spin echo scans were made with the NMR tomograph (CSI 2 T) at 2 tesla (TR time of 400 ms and TE time of 20 ms).
# The contrast medium was administrated intravenously into a caudal vein of a male hairless rat (Lew/Mol) weighing 190 g, in a dose of 0.06 mmol/kg.
# [2] = T1 relaxation (relaxivity) in plasma; type: physicochemical
# Excerpt: (§1) T1 relaxation (1/mmol·sec) is
# (§2) The T1 relaxation (1/mmol·sec) is
# (§3) The T1 relaxation (1/mmol·sec) amounts to
# (§4) The T1 relaxation (1mmol·sec) is […]
# [3] = T1 relaxation (relaxivity) in water; type: physicochemical
# Excerpt: as §1, §2, §3, §4
# rats [4] = test: in vivo MRI in rats, T1-weighted spin echo, liver/stomach/osteogenic sarcoma; design: species or system rat (female, Lew/Mol); details: 0.1 mmol Gd/kg i.v.; for enhancement of the stomach: ranking among the three compounds
# Excerpt: The test animals were female rats of the strain Lew/Mol weighing 160-180 g. Prior to imaging, the animals were anesthetized ("Rompun"+"Ketavet") and provided with a catheter in the caudel vein to administer the contrast medium. Imaging took place in an MRI experimental device by General Electric (field strength 2 tesla). First of all, the images (7, 9, 11) were made without contrast medium with a T1 -weighted spin echo sequence (TR=400 msec, TE=20 msec, axial section plane, layer thickness 3 mm). The liver appears in each case with the normal signal intensity; the stomach is darker in tendency than the liver. […] This is due to feed residues, the feed containing manganese in relatively high concentrations (at the time of the test, the animals had been fasting for 6 hours). Animal 3 had been implanted with an osteogenic sarcoma three weeks previously; this sarcoma was of equal contrast in the blank image and could not be defined. The administration of contrast medium took place via the venous catheter with a dose of 0.1 mmol Gd/kg (concentration of the solutions 0.05 mmol Gd/ml in 0.9% NaCl) for all 3 compounds.
# rats [5] = details: at this point in time after administration; no own data shown; cited from earlier work
compound,measurement,setting,value
"COc1ccc(CC(CN(CCN(CC(=O)[O-])CC(=O)[O-])CC(=O)[O-])N(CC(=O)[O-])CC(=O)[O-])cc1.[Gd+3].[Na+].[Na+] (centres unmarked) [Example 1(c) disodium salt, Gadolinium Complex of 3,6,9-Triaza-3,6,9-tris-(carboxymethyl)-4-(4-methoxybenzyl)undecanedioic Acid]",increase in contrast in the stomach,rats [1]; 45 minutes after injection,strong increase in contrast
same,contrasting of the intestine,rats [1]; 60 minutes after injection,contrasting of the intestine can likewise be observed
same,contrasting of the renal pelvis,rats [1]; 60 minutes after injection,striking
same,visualization of the stomach,rats [1]; 60 minutes after injection,good visualization
same,visualization of the urinary bladder,rats [1]; 60 minutes after injection,good visualization
same,visualization of the tumor,"rats [1]; 60 minutes after injection, Brown Pearce tumor in the thigh",good visualization
same,contrasting of the renal pelvis,"rats [1]; 65 minutes after injection, somewhat different layer",even more improved
same,contrast enhancement in the zone of the liver,"rats [1]; 180 minutes after injection, axial scan",contrast enhancement is likewise clearly recognizable
same,contrast enhancement in the urinary bladder,rats [1]; one minute after administration,first enhancement is already apparent
same,T1 relaxation,[2],6.89 ± 0.17 mmol⁻¹ s⁻¹
same,T1 relaxation,[3],4.54 ± 0.13 mmol⁻¹ s⁻¹
"CCOc1ccc(CC(CN(CCN(CC(=O)[O-])CC(=O)[O-])CC(=O)[O-])N(CC(=O)[O-])CC(=O)[O-])cc1.[Gd+3].[Na+].[Na+] (centres unmarked) [Example 8(c), Disodium Salt of the Gadolinium Complex of 3,6,9-Triaza-3,6,9-tris(carboxymethyl)-4-(4-ethoxybenzyl)undecanedioic Acid]",enhancement of the liver,rats [4]; after 90 minutes,marked enhancement of the liver
same,enhancement of the stomach,rats [4],least
same,T1 relaxation,[2],8.69 ± 0.53 mmol⁻¹ s⁻¹
same,T1 relaxation,[3],5.33 ± 0.13 mmol⁻¹ s⁻¹
"CCCCOc1ccc(CC(CN(CCN(CC(=O)[O-])CC(=O)[O-])CC(=O)[O-])N(CC(=O)[O-])CC(=O)[O-])cc1.[Gd+3].[Na+].[Na+] (centres unmarked) [Example 9(c), Disodium Salt of the Gadolinium Complex of 3,6,9-Triaza-3,6,9-tris(carboxymethyl)-4-(4-butoxybenzyl)undecanedioic Acid]",enhancement of the liver,rats [4]; after 60 minutes,marked enhancement of the liver
same,T1 relaxation,[2]; unit printed without slash,14.20±0.98 1mmol·sec
same,T1 relaxation,[3]; unit printed without slash,5.80±0.26 1mmol·sec
"O=C([O-])CN(CCN(CC(=O)[O-])CC(Cc1ccc(OCc2ccccc2)cc1)N(CC(=O)[O-])CC(=O)[O-])CC(=O)[O-].[Gd+3].[Na+].[Na+] (centres unmarked) [Example 10(c), Disodium Salt of the Gadolinium Complex of 3,6,9-Triaza-3,6,9-tris(carboxymethyl)-4-(4-benzyloxybenzyl)undecanedioic Acid]",enhancement of the liver,rats [4]; after 60 minutes,marked enhancement of the liver
same,visibility of the tumor,"rats [4]; animal 3, osteogenic sarcoma implanted three weeks previously, 60 minutes",clearly visible
same,absorption of the contrast medium by the tumor,"rats [4]; animal 3, osteogenic sarcoma, 60 minutes","not absorbed the contrast medium at all, or only to a lesser proportion"
same,enhancement of the stomach,rats [4],most strongly
same,T1 relaxation,[2],16.35 ± 1.01 mmol⁻¹ s⁻¹
same,T1 relaxation,[3],5.81 ± 0.11 mmol⁻¹ s⁻¹
"CNC[C@H](O)[C@@H](O)[C@H](O)[C@H](O)CO.CNC[C@H](O)[C@@H](O)[C@H](O)[C@H](O)CO.O=C([O-])CN(CCN(CC(=O)[O-])CC(=O)O)CCN(CC(=O)[O-])CC(=O)O.[Gd+3] [Magnevist, dimeglumine salt of Gd DTPA [gadolinium(III)complex of diethylenetriaminepentaacetic acid]]",enhancement of the liver (comparison),rats [5],cannot be observed
"Gadolinium Complex of 3,6,9-Triaza-3,6,9-tris-(carboxymethyl)-4-(4-carboxymethoxybenzyl)-undecanedioic Acid [Example 6(c)]",T1 relaxation,[2],7.10 ± 0.08 mmol⁻¹ s⁻¹
same,T1 relaxation,[3],5.00 ± 0.01 mmol⁻¹ s⁻¹
"Gadolinium Complex of 3,6,9-Triaza-3,6,9-tris-(carboxymethyl)-4-[4-(4-methoxybenzyloxy)benzyl]-undecanedioic Acid [Example 3(c)]",T1 relaxation,[2],6.99 ± 0.13 mmol⁻¹ s⁻¹
same,T1 relaxation,[3],4.23 ± 0.16 mmol⁻¹ s⁻¹
"Gadolinium Complex of 3,6,9-Triaza-3,6,9-tris-(carboxymethyl)-4-benzyloxymethylundecanedioic Acid [Example 5(c)]",T1 relaxation,[2],6.31 ± 0.15 mmol⁻¹ s⁻¹
same,T1 relaxation,[3],4.39 ± 0.12 mmol⁻¹ s⁻¹
"Gadolinium Complex of 3,6,9-Triaza-3,6,9-tris-(carboxymethyl)-4-benzylundecanedioic Acid [Example 4(d)]",T1 relaxation,[2],6.89 ± 0.17 mmol⁻¹ s⁻¹
same,T1 relaxation,[3],4.54 ± 0.13 mmol⁻¹ s⁻¹
"Gadolinium Complex of 3,6,9-Triaza-3,6,9-tris-(carboxymethyl)-5-(4-methoxybenzyl)undecanedioic Acid [Example 2(c)]",T1 relaxation,[2],6.61 ± 0.18 mmol⁻¹ s⁻¹
same,T1 relaxation,[3],4.17 ± 0.14 mmol⁻¹ s⁻¹
